Measurements: article PMC9030932, “Development of Dibenzothiazepine Derivatives as Multifunctional Compounds for Neuropathic Pain” (Pharmaceuticals, 2022)
Entries after “also recorded” stand apart in the source; their conditions may differ. Like-named read-outs stand apart in the source and are kept apart here. Marks after values point to notes of the source that are not given here.

Columns and labels:
[1] = test system: spinal-nerve-ligated neuropathic pain rats; test: Spinal nerve ligation (SNL) neuropathic pain model, von Frey paw withdrawal threshold, intrathecal; format: in vivo, rat; settings: for maximum possible effect (MPE): highest dose (12: 100 μg; 17: 30 μg); for effect on paw withdrawal threshold (PWT) / allodynia: vs vehicle
Protocol: Adult male Sprague-Dawley rats weighing 150–180 g each were used. The animals were housed in a room with a constant temperature of 22–23 °C and an alternating 12-h light/dark cycle, with unrestricted access to food and water. Implantation of intrathecal catheters was performed for drug administration under sevoflurane anesthesia, as described previously. Seven days of recovery were allowed after surgery before the use of catheterized rats in the experiments. Spinal nerve-ligated neuropathic pain was induced by tightly ligating the left L5 and L6 spinal nerves, as described previously. Only rats showing allodynia after either spinal nerve ligation (withdrawal threshold < 4 g) were studied. The von Frey test was used to determine the 50% probability paw withdrawal threshold (PWT), using the up and down method, in which a positive response was defined as brisk withdrawal or paw flinching during or immediately after application of a filament. On experimentation days (12 days after SNL), rats were acclimatized in a box with a wire mesh floor for at least 20 min before being randomly allocated to one of the experimental groups. All experiments were carried out by an observer who was blind to the treatments. To investigate the effects of 12 (30 or 100 μg) and 17 (10 or 30 μg), it was supplied intrathecally following post-injury baseline PWT determination in rats with either spinal nerve-ligated neuropathic pain. Withdrawal thresholds were determined at 15, 30, 60, 90, 120, 150, and 180 min after intrathecal administration.
All data are expressed as means ± SEM. The time-response data are presented as the withdrawal threshold in grams. The dose-response data are presented as a percentage of the maximum possible effect (%MPE): %MPE = ((post-drug threshold−post-injury baseline threshold)/(cutoff threshold−post-injury baseline threshold)) × 100. Time and dose-response data were analyzed by a one-way and two-way repeated measures analysis of variance (ANOVA), with a Bonferroni’s post hoc test. A p-value < 0.05 was considered statistically significant.

hOPRM1 receptor = target: T1, hOPRM1 receptor (Homo sapiens, UniProt P35372); test: PathHunter CHO-K1 OPRM1 β-arrestin recruitment assay; format: cell-based
T1 construct: host or cells: CHO-K1

[2] = target: human serotonin transporter (hSERT) (Homo sapiens, UniProt P31645); test: Neurotransmitter transporter uptake assay, HEK-hSERT; format: cell-based; settings: for inhibition at 10 µM: read-out: % Inhibition at 10 μM hSERT
[3] = In vitro metabolic stability, mouse; format: in vitro ADME; settings: pH 7.4, % remaining after 30 min incubation with S9 microsomal fraction
Protocol: (§1) Experimental details for Biology […]
(§2) Microsomal stability. The metabolic stability of compounds was evaluated in rat liver microsomes (RLM). Microsomes (0.5 mg/ml) and test compound (1 µM) in 100 mM potassium phosphate buffer (pH 7.4) were preincubated with shaking (100 rpm) for 5 min at 37 °C. The metabolic reaction was initiated by the addition of an NADPH generating system (60 mM potassium phosphate buffer pH 7.4, 1.3 mM NADP, 3.3 mM glucose-6-phosphate, 0.3 µL glucose-6-phosphate dehydrogenase (0.4 U/mL), and 3.3 mM magnesium chloride) and incubated at 37 °C. Aliquots of 100 µL were withdrawn at 0, 10, 20, 30 and 60 min, and 2 volumes of ice-cold acetonitrile (ACN) were added to terminate the reaction. After mixing by vortex and centrifugation (14000 rpm) for 15 min at 4 °C, the supernatant was transferred to liquid chromatography vials and analyzed by an LC-MS/MS system.
(§3) Table S1. In vitro metabolic stability of selected compounds.
(§4) Compounds Human Rat Mouse […]
(§5) a% remaining after 30 min incubation with S9 microsomal fraction.

[4] = In vitro metabolic stability, rat; format: in vitro ADME; settings: pH 7.4, % remaining after 30 min incubation with S9 microsomal fraction
Protocol: as §1, §2, §3, §4, §5

[5] = target: T2, human μ-opioid receptor (OPRM1) (Homo sapiens, UniProt P35372); test: Intracellular calcium mobilization (FLIPR Tetra), HEK-hMOR agonism; format: cell-based; settings: for agonistic activity at the μ-opioid receptor / % Stimulation at 10 μM, OPRM1 Agonism against DAMGO (3.9 μM): HEK-hMOR calcium mobilization; for agonistic activity at the μ-opioid receptor: compared to DAMGO; for % Stimulation at 10 μM, OPRM1 Agonism against DAMGO (3.9 μM): normalized to Emax of DAMGO at 3.9 μM
T2 construct: host or cells: HEK293 (constitutive expression)

[6] = target: T3, human κ-opioid receptor (OPRK1) (Homo sapiens, UniProt P41145); test: Intracellular calcium mobilization (FLIPR Tetra), HEK-hKOR agonism; format: cell-based; settings: for agonistic activity at the κ-opioid receptor: HEK-hKOR calcium mobilization; for activation at 10 µM: read-out: % Stimulation at 10 μM, OPRK1 Agonism against DynorphinA (370 nM)
T3 construct: host or cells: HEK293 (constitutive expression)
Protocol: Intracellular calcium mobilization was measured by using FLIPR Tetra System (Molecular Devices, Sunnyvale, CA, USA) in accordance with manufacturer’s instruction. […] Subsequently, the plate was transferred to the FLIPR tetra system for treating 50 μL of the 5× compounds diluted in loading buffer and reading intracellular calcium mobilization. The final concentration of DMSO was 0.1%. […] A dose response curve was generated with the changes in Relative Fluorescence Units (∆RFU) versus Log10 dose.
Experimental details for Biology
Cell culture. HEK293 cells stably expressing human DA transporter (HEK-hDAT), human NE transporter (HEK-hNET) and human serotonin transporter (HEK-hSERT) were kindly provided by Professor Bryan Roth (University of North Carolina at Chapel Hill). And HEK293 cells constitutively expressing human κ- or μ- opioid receptor (HEK-hKOR_NM000912 or HEK-hMOR_NM000914) were constructed by Professor Ki Duk Park (in Korea Institute of Science […]
Europins DiscoveRx (Fremont, CA, USA). Cells were mainta ined in Dulbecco's modified Eagle's medium (HyClone, Logan, UT, USA) supplemented with 10%(v/v) fetal bovine serum (FBS, HyClone, Logan, UT, USA), penicillin (100 U/mL), and streptomycin (100 μg/mL) in the […]
for HEK-hDAT, HEK-hNET, HEK-hSERT, HEK-hKOR and HEK-hMOR respectively) in a humidified 5% CO2 incubator at 37 °C. In case of both HEK-hKOR and HEK-hMOR, cells were additionally maintained in 0.2 mg/mL hygromycin B, 1 μg/mL puromycin B, 1× non-essential amino acids. The cells were subcultured every 3-4 days. […]

[7] = target: human norepinephrine transporter (hNET) (Homo sapiens, UniProt P23975); test: Neurotransmitter transporter uptake assay, HEK-hNET; format: cell-based; settings: for inhibition at 10 µM: HEK-hNET, mean ± SEM, n = 3–6, read-out: % Inhibition at 10 μM hNET
rats = test: Behavioral responses: motor functions (righting, placing/stepping reflexes), pinna and corneal reflexes after intrathecal administration; format: in vivo, rat; settings: highest doses, examined for 3 h
Protocol: Motor functions were assessed by examining righting and placing/stepping reflexes. […] The […] was evoked by the rat drawing the dorsum of either hind paw across the edge of a table. Normally, rats attempt to place a paw into a position that enables walking. The pinna and corneal reflexes were evoked by stimulating the ear canal or cornea, respectively, with a string. Normally, rats spontaneously shake their heads or blink. Normality of behavior was classified as present or absent. To evaluate the behavioral changes induced by compounds 12 and 17, additional rats were examined for 3 h after intrathecal administration of the highest doses of the agents used. The motor function and pinna and corneal reflexes were normal after intrathecal administration of compounds 12 and 17 at the highest doses. Overt abnormal behavioral changes were not observed.

[8] = In vitro metabolic stability, human; format: in vitro ADME; settings: for in vitro metabolic stability: S9 microsomal fraction, 30 min, Table S1; for recovery at 30 min, 1 µM: human, pH 7.4, % remaining after 30 min incubation with S9 microsomal fraction
Protocol: as §1, §2, §3, §4, §5

[9] = target: human dopamine transporter (hDAT) (Homo sapiens, UniProt Q01959); test: Neurotransmitter transporter uptake assay, HEK-hDAT; format: cell-based; settings: for inhibition at 10 µM: read-out: % Inhibition at 10 μM hDAT
Sequence of human dopamine transporter (hDAT) (Q01959 whole entry): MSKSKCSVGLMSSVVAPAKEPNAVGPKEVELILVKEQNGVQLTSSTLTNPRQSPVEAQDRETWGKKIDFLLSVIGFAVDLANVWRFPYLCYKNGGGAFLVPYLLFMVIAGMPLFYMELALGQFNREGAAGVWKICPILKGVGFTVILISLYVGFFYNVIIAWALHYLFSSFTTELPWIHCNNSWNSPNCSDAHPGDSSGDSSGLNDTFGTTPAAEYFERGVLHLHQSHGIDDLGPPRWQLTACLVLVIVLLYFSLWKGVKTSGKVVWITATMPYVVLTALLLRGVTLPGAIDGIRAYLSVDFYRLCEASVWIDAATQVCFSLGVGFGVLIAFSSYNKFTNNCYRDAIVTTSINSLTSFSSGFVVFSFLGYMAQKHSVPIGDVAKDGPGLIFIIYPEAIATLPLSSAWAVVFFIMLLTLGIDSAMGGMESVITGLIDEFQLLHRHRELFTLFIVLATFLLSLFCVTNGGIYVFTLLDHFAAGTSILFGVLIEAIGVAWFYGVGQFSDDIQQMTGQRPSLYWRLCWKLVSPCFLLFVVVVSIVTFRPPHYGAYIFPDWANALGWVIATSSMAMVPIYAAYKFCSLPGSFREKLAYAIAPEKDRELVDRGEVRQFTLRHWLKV

T2 sequence (P35372 whole entry): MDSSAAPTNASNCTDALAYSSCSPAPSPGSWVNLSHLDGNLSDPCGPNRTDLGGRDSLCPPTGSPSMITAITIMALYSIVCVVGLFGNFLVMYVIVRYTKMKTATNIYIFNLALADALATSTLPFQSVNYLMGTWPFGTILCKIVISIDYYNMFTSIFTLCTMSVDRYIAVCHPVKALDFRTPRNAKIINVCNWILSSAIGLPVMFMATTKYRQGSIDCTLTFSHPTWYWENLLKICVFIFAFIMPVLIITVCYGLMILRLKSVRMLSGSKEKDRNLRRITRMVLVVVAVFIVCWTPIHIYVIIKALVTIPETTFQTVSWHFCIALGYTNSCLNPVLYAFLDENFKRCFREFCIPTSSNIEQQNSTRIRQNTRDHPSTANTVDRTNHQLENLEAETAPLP
T1 sequence (P35372 whole entry): as above
T3 sequence (P41145 whole entry): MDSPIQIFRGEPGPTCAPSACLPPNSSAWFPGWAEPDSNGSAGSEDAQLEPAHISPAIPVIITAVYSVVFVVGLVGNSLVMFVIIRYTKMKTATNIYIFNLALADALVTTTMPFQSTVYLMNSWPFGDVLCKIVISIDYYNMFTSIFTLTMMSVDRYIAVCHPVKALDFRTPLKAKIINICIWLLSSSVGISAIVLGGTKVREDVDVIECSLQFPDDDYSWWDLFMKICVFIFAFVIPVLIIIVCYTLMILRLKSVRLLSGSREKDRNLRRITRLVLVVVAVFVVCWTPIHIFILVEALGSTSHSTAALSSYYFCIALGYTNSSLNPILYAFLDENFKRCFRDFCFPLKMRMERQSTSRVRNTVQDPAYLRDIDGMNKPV
Sequence of human serotonin transporter (hSERT) (P31645 whole entry): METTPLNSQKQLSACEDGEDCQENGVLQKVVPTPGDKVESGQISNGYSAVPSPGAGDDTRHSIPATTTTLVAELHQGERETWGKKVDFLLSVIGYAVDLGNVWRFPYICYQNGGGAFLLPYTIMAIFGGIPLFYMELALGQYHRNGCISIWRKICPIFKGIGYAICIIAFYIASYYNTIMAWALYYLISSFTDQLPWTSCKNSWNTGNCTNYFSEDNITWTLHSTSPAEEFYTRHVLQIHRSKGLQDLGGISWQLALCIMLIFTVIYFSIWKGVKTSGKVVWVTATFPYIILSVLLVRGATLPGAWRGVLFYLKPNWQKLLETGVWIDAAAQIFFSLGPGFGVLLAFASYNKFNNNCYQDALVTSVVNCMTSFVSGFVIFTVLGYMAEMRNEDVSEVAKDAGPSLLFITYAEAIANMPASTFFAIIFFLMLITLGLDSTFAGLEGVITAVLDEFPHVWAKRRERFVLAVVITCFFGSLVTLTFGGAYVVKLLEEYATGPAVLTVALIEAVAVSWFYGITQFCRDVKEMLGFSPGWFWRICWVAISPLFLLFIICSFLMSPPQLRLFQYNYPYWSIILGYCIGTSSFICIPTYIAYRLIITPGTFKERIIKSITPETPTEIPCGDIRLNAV
Sequence of human norepinephrine transporter (hNET) (P23975 whole entry): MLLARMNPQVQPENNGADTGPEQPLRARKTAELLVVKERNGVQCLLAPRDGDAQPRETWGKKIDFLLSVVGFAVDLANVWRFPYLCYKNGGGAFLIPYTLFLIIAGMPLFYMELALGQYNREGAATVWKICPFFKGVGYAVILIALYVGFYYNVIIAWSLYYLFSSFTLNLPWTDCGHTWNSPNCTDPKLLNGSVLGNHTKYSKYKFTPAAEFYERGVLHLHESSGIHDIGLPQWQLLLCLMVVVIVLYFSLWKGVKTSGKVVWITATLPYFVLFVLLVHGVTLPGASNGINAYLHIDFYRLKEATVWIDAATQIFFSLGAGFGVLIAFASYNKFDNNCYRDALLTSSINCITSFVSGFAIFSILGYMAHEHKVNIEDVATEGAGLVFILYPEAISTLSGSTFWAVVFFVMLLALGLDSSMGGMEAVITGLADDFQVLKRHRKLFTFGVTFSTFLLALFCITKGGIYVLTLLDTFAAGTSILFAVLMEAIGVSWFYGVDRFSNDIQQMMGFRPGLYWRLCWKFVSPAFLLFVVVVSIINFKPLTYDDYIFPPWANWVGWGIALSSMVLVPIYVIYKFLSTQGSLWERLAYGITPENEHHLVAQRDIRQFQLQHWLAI

| Structure (SMILES) | EC50 (hOPRM1 receptor) | IC50 [2] | EC50 [5] | activation at 10 µM [6] | inhibition at 10 µM [7] | IC50 [9] | inhibition at 10 µM ([2]; HEK-hSERT, mean ± SEM, n = 3–6) | % Stimulation at 10 μM, OPRM1 Agonism against DAMGO (3.9 μM) [5] | inhibition at 10 µM [9] | further results |
| --- | --- | --- | --- | --- | --- | --- | --- | --- | --- | --- |
| CN1c2ccccc2C(NCCCCCCC(=O)NCCc2c[nH]c3ccc(O)cc23)c2ccc(Cl)cc2S1(=O)=O (stereo not shown) [Compound 12, 7-((3-chloro-6-methyl-5,5-dioxido-6,11-dihydrodibenzo[c,f][1,2]thiazepin-11-yl)amino)-N-(2-(5-hydroxy-1H-indol-3-yl)ethyl)heptanamide] | 134 ± 12 nM | 258 ± 57 nM | 1200 ± 244 nM | < 10% | 30.1 ± 0.87% | 9660 ± 1000 nM |  |  |  | maximum possible effect (MPE) [1]: 73%; effect on paw withdrawal threshold (PWT) / allodynia [1]: dose-dependent increase in the withdrawal threshold; also recorded: increased the paw withdrawal threshold (PWT) compared to the vehicle; melting point: 92 to 95 °C; recovery at 30 min, 1 µM [3]: 5%; recovery at 30 min, 1 µM [4]: 6%; agonistic activity at the μ-opioid receptor [5]: partial agonisms; agonistic activity at the κ-opioid receptor [6]: did not show agonistic activities; motor function and pinna and corneal reflexes (rats): normal; in vitro metabolic stability [8]: extremely low; recovery at 30 min, 1 µM [8]: 5% |
| CN1c2ccccc2C(NCCCCCCC(=O)NCCc2c[nH]c3ccccc23)c2ccc(Cl)cc2S1(=O)=O (stereo not shown) [Compound 14, N-(2-(1H-indol-3-yl)ethyl)-7-((3-chloro-6-methyl-5,5-dioxido-6,11-dihydrodibenzo[c,f][1,2]thiazepin-11-yl)amino)heptanamide] | 113 ± 3 nM |  |  | < 10% | 65.2 ± 3.4% | 3810 ± 1400 nM | 50.3 ± 3.4% | 62.3 ± 2.9% ^b |  |  |
| CN1c2ccccc2C(NCCCCCCCNCCc2c[nH]c3ccc(O)cc23)c2ccc(Cl)cc2S1(=O)=O (stereo not shown) [Compound 17, 3-chloro-11-((7-((2-(5-hydroxy-1H-indol-3-yl)ethyl)amino)heptyl)amino)-6-methyl-6,11-dihydrodibenzo[c,f][1,2]thiazepine 5,5-dioxide] | 1560 ± 195 nM |  | 384 ± 25 nM | < 10% |  | 2010 ± 650 nM |  |  |  | maximum possible effect (MPE) [1]: 83%; effect on paw withdrawal threshold (PWT) / allodynia [1]: increased mechanical withdrawal threshold compared to vehicle; also recorded: significantly reduced allodynia; also recorded: increased the PWT; also recorded: showed antiallodynic effects at the spinal level; β-arrestin recruitment (hOPRM1 receptor; CHO-K1 OPRM1): lower levels of β-arrestin recruitment than compound 12; IC50 ([2]; HEK-hSERT, neurotransmitter uptake, mean ± SEM, n = 3–6, read-out: IC50 hSERT): 70 ± 9 nM; fold higher hSERT inhibitory activity than compound 12 ([2]; IC50 ratio vs compound 12): 3 fold; recovery at 30 min, 1 µM [3]: 1%; recovery at 30 min, 1 µM [4]: 1%; fold increase in Ca2+ efflux in HEK-hMOR ([5]; HEK-hMOR): 5.9 fold; agonistic activity at the μ-opioid receptor [5]: partial agonisms; agonistic activity at the κ-opioid receptor [6]: no influence; also recorded: did not show agonistic activities; IC50 [7]: 154 ± 7 nM; motor function and pinna and corneal reflexes (rats): normal; in vitro metabolic stability [8]: extremely low; recovery at 30 min, 1 µM [8]: 0% |
| CN1c2ccccc2C(NCCCCCCCC=CCc2c[nH]c3ccccc23)c2ccc(Cl)cc2S1(=O)=O (stereo not shown) [Compound 21] | > 10000 nM |  |  | < 10% | 5.64 ± 4.5% |  | 26.3 ± 6.4% | <10% ^b | 8.92 ± 6.1% |  |
| CN1c2ccccc2C(NCCCCCCCCCCc2c[nH]c3ccccc23)c2ccc(Cl)cc2S1(=O)=O (stereo not shown) [Compound 22] | > 10000 nM |  |  | < 10% | 5.56 ± 0.07% |  | 17.9 ± 7.5% | 11.8 ± 1.9% ^b | 1.95 ± 0.06% |  |
| CC(C)C[C@H](CNC(=O)CCCCCCNC1c2ccccc2N(C)S(=O)(=O)c2cc(Cl)ccc21)CC(=O)O (stereo partly drawn) [Compound 25, (3S)-3-((7-((3-chloro-6-methyl-5,5-dioxido-6,11-dihydrodibenzo[c,f][1,2]thiazepin-11-yl)amino)heptanamido)methyl)-5-methylhexanoic acid] | > 10000 nM |  | 2410 ± 144 nM | < 10% | 21 ± 2.6% |  | 11.3 ± 2.5% |  | 17.6 ± 8.9% |  |
| CN(CCCCCCCNC1c2ccccc2N(C)S(=O)(=O)c2cc(Cl)ccc21)CCC(Oc1ccc(C(F)(F)F)cc1)c1ccccc1 (stereo not shown) [Compound 26, 3-chloro-6-methyl-11-((7-(methyl(3-phenyl-3-(4-(trifluoromethyl)phenoxy)propyl)amino)heptyl)amino)-6,11-dihydrodibenzo[c,f][1,2]thiazepine 5,5-dioxide] | > 10000 nM | 2180 ± 370 nM |  | < 10% | 7.07 ± 4.1% |  |  | <10% ^b | 23.6 ± 12% |  |
| CN1c2ccccc2C(NCCCCCCCNCCc2c[nH]c3ccc(C#N)cc23)c2ccc(Cl)cc2S1(=O)=O (stereo not shown) [Compound 27, 3-(2-((7-((3-chloro-6-methyl-5,5-dioxido-6,11-dihydrodibenzo[c,f][1,2]thiazepin-11-yl)amino)heptyl)amino)ethyl)-1H-indole-5-carbonitrile] | 3280 ± 642 nM | 462 ± 34 nM |  | < 10% | 63.6 ± 4.4% | 4980 ± 2100 nM |  | 65.9 ± 2.8% ^b |  |  |
